Legend:
[1] = molecular target: BMPR1B kinase (Homo sapiens, UniProt O00238); assay: Kinase activity screening (330 kinases, HTRF or ADP-Glo); type: biochemical; conditions: screen of 330 kinases; II-1 2.5 mM, 25 nL in DMSO added to 2.5 µL kinase; Figure 1A
Experimental: A total of 330 kinase candidates (15-50 nM, 2.5 µL) were mixed with compound II-1 (2.5 mM, 25 nL, prepared in DMSO) and incubated at 25 °C for 10 minutes. Then, a mixture of kinase peptide substrate (0.2 mg/mL; supplier: GenScript) and ATP (10-60 µM; supplier: Promega; product number: V915B) was added (total 2.5 µL, prepared in assay buffer), and the reaction was carried out at 25 °C for 60-120 minutes. Finally, the reaction products were quantified using HTRF1 or ADP-Glo2 methods. During the kinase activity assay, the consumption of each substrate was kept below 10%, and each kinase assay was performed in duplicate.

[2] = test system: glioma U251 cells; assay: Treatment of glioma cells, qPCR transcriptional analysis (CASP3) and cytotoxicity versus LY2157299; type: cell-based
Experimental: In this example, compound II-1 and the reference compound LY2157299 were used to treat glioma U251 cells. Samples were collected at 12 hours and 72 hours posttreatment. Total RNA was extracted using the Rneasy Mini or Micro Kit (QIAGEN), and […] of RNA was reverse-transcribed into cDNA using the SuperScript III First-Strand Synthesis System (Invitrogen). Quantitative PCR was performed using SYBR Premix Ex Taq (TaKaRa) on a Thermal Cycler Dice Real-Time System (TaKaRa), with beta-Actin serving as an internal control. All data were analyzed using the delta-Ct method. Each experiment was performed in triplicate, and variance analysis was conducted. […] Table 3. Primers for transcriptional analysis of cells treated with compound II-1

[3] = test system: OVCAR3; assay: CCK-8 cell viability assay; type: cell-based
Experimental: (§1) Tumor cells OVCAR3 (ovarian cancer), HeLa ([…]), U251 (glioma), H9 cells, and non-tumor HEK293 cells were cultured in DMEM/F12 medium supplemented with 10% FBS and 1% P/S. When cells reached 70% confluency, they were digested with 0.25% Trypsin at 37°C for 2-3 minutes, and digestion was stopped with DMEM/F12 medium. Cell suspensions were collected in 15 mL centrifuge tubes, centrifuged at 1000 rpm for 5 minutes, the supernatant was discarded, and cells were resuspended in DMEM/F12 medium with 10% FBS and 1% P/S. Cells were counted using a hemocytometer, and based on the counts, they were resuspended to the desired concentration. Tumor cells were seeded in 96-well plates at 1×10^4 cells per well, 100 µL per well. From day 1 to day 7 after seeding, cells were treated with compound II-1 at 0 µM, 10 µM, 30 µM, and 50 µM (the pyrazolecarbonyl piperazinone compounds were diluted to 10 µM, 30 µM, and 50 µM with DMEM + 10% FBS). Each concentration was tested in triplicate wells.
(§2) Cell viability on days 1, 3, 5, and 7 was determined using the CCK-8 cell proliferation/cytotoxicity assay kit (Vazyme, A311-02) by measuring absorbance at OD450 nm, with wells containing only medium and CCK-8 solution as blank controls. Each concentration was measured in triplicate.
(§3) Calculation of cell survival rate: For the same cell type at the same time point, the absorbance of cells not treated with compound II-1 was set as 100% baseline. For cells treated with different concentrations, the absorbance was compared with the control group (CK) to calculate the relative proportion. For example, the survival rate of H9 cells on day 4 treated with 30 µM of the small molecule compound was calculated as follows: [OD(D4)30μMiPS]/[OD(D4)0μMH9] × 100% [formula] Table 2. Cell survival rates of various cell types after treatment with different concentrations of compound II-1 measured by CCK-8 assay

[4] = test system: U251; assay: CCK-8 cell viability assay; type: cell-based
Experimental: as §1, §2, §3

[5] = test system: HEK293; assay: CCK-8 cell viability assay; type: cell-based
Experimental: as §1, §2, §3

[6] = test system: Hela; assay: CCK-8 cell viability assay; type: cell-based
Experimental: as §1, §2, §3

[7] = test system: H9; assay: CCK-8 cell viability assay; type: cell-based
Experimental: as §1, §2, §3

Sequence of BMPR1B kinase (O00238 14-502): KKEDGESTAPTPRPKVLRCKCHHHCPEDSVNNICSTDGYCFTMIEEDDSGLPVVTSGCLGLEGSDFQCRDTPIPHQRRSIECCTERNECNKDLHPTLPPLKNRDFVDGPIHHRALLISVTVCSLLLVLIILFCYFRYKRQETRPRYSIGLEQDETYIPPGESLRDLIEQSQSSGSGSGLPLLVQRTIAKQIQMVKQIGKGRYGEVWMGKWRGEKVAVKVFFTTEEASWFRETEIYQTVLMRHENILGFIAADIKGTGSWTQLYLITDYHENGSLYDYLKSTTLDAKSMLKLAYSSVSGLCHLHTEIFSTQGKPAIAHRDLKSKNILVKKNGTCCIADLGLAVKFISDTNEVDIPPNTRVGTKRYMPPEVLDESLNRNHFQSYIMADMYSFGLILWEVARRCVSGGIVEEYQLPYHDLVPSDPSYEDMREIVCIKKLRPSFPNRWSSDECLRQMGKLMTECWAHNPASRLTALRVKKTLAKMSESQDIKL

O=C1CN(C(=O)c2n[nH]c3c2CCC3)[C@H]2CCCC[C@@H]2N1 [II-1, (4aS,8aS)-4-(1,4,5,6-tetrahydrocyclopenta[c]pyrazole-3-carbonyl)octahydroquinoxalin-2(1H)-one] was tested, and the “inhibitory activity against BMPR1B kinase” value [1] was “significant inhibitory activity”, the “cells remaining in the wells compared to LY2157299” value ([2]; after 72 hours of treatment, Figure 3) was “fewer cells remained” and the “apoptosis compared to LY2157299” value ([2]; same concentration as LY2157299, Figure 3) was “higher apoptosis”. The Cell survival rate ([3]; OVCAR3, II-1 10 µM, Day 1 Treatment) was 95.05%, the Cell survival rate ([3]; OVCAR3, II-1 10 µM, Day 3 Treatment) was 98.06% and the Cell survival rate ([3]; OVCAR3, II-1 10 µM, Day 5 Treatment) was 96.19%. For the same compound, the Cell survival rate ([3]; OVCAR3, II-1 10 µM, Day 7 Treatment) was 97.99%, the Cell survival rate ([3]; OVCAR3, II-1 30 µM, Day 1 Treatment) was 89.67% and the Cell survival rate ([3]; OVCAR3, II-1 30 µM, Day 3 Treatment) was 94.18%. The Cell survival rate ([3]; OVCAR3, II-1 30 µM, Day 5 Treatment) was 92.35%, the Cell survival rate ([3]; OVCAR3, II-1 30 µM, Day 7 Treatment) was 90.98% and the Cell survival rate ([3]; OVCAR3, II-1 50 µM, Day 1 Treatment) was 88.56%. For the same compound, the Cell survival rate ([3]; OVCAR3, II-1 50 µM, Day 3 Treatment) was 90.37%, the Cell survival rate ([3]; OVCAR3, II-1 50 µM, Day 5 Treatment) was 85.37% and the Cell survival rate ([3]; OVCAR3, II-1 50 µM, Day 7 Treatment) was 80.83%. The “cell viability, course with time and concentration” value (shortened to “cell viability, course”) ([3]; OVCAR3, II-1 10-50 µM, days 1-7) was “gradual decrease in cell viability over time”, the Cell survival rate ([4]; U251, II-1 10 µM, Day 1 Treatment) was 100.75% and the Cell survival rate ([4]; U251, II-1 10 µM, Day 3 Treatment) was 98.96%. It also gave a Cell survival rate ([4]; U251, II-1 10 µM, Day 5 Treatment) of 95.19%, a Cell survival rate ([4]; U251, II-1 10 µM, Day 7 Treatment) of 94.74% and a Cell survival rate ([4]; U251, II-1 30 µM, Day 1 Treatment) of 99.49%. For the same compound, the Cell survival rate ([4]; U251, II-1 30 µM, Day 3 Treatment) was 87.01%, the Cell survival rate ([4]; U251, II-1 30 µM, Day 5 Treatment) was 79.39% and the Cell survival rate ([4]; U251, II-1 30 µM, Day 7 Treatment) was 74.00%. It also gave a Cell survival rate ([4]; U251, II-1 50 µM, Day 1 Treatment) of 98.61%, a Cell survival rate ([4]; U251, II-1 50 µM, Day 3 Treatment) of 85.27% and a Cell survival rate ([4]; U251, II-1 50 µM, Day 5 Treatment) of 70.43%. For the same compound, the Cell survival rate ([4]; U251, II-1 50 µM, Day 7 Treatment) was 63.89%, the “cell viability, course” value ([4]; U251, II-1 10-50 µM, days 1-7) was “gradual decrease in cell viability over time” and the Cell survival rate ([5]; HEK293, II-1 10 µM, Day 1 Treatment) was 96.09%. It also gave a Cell survival rate ([5]; HEK293, II-1 10 µM, Day 3 Treatment) of 96.67%, a Cell survival rate ([5]; HEK293, II-1 10 µM, Day 5 Treatment) of 98.80% and a Cell survival rate ([5]; HEK293, II-1 10 µM, Day 7 Treatment) of 99.24%. For the same compound, the Cell survival rate ([5]; HEK293, II-1 30 µM, Day 1 Treatment) was 93.69%, the Cell survival rate ([5]; HEK293, II-1 30 µM, Day 3 Treatment) was 94.14% and the Cell survival rate ([5]; HEK293, II-1 30 µM, Day 5 Treatment) was 94.39%. The Cell survival rate ([5]; HEK293, II-1 30 µM, Day 7 Treatment) was 94.97%, the Cell survival rate ([5]; HEK293, II-1 50 µM, Day 1 Treatment) was 80.80% and the Cell survival rate ([5]; HEK293, II-1 50 µM, Day 3 Treatment) was 90.72%. The Cell survival rate ([5]; HEK293, II-1 50 µM, Day 5 Treatment) was 92.46%, the Cell survival rate ([5]; HEK293, II-1 50 µM, Day 7 Treatment) was 93.56% and the “cell viability, course” value ([5]; non-tumor HEK293, II-1 10-50 µM, days 1-7) was “did not show significant changes”. The Cell survival rate ([6]; II-1 10 µM, Day 1 Treatment) was 103.32%, the Cell survival rate ([6]; II-1 10 µM, Day 3 Treatment) was 98.58% and the Cell survival rate ([6]; II-1 10 µM, Day 5 Treatment) was 97.35%. It also gave a Cell survival rate ([6]; II-1 10 µM, Day 7 Treatment) of 97.27%, a Cell survival rate ([6]; II-1 30 µM, Day 1 Treatment) of 100.64% and a Cell survival rate ([6]; II-1 30 µM, Day 3 Treatment) of 93.45%. The Cell survival rate ([6]; II-1 30 µM, Day 5 Treatment) was 90.71%, the Cell survival rate ([6]; II-1 30 µM, Day 7 Treatment) was 85.04% and the Cell survival rate ([6]; II-1 50 µM, Day 1 Treatment) was 88.66%. The Cell survival rate ([6]; II-1 50 µM, Day 3 Treatment) was 81.80%, the Cell survival rate ([6]; II-1 50 µM, Day 5 Treatment) was 80.31% and the Cell survival rate ([6]; II-1 50 µM, Day 7 Treatment) was 75.83%. For the same compound, the “cell viability, course” value ([6]; II-1 10-50 µM, days 1-7) was “gradual decrease in cell viability over time”, the Cell survival rate ([7]; H9, II-1 10 µM, Day 1 Treatment) was 90.37% and the Cell survival rate ([7]; H9, II-1 10 µM, Day 3 Treatment) was 92.91%. It also gave a Cell survival rate ([7]; H9, II-1 10 µM, Day 5 Treatment) of 84.84%, a Cell survival rate ([7]; H9, II-1 10 µM, Day 7 Treatment) of 83.47% and a Cell survival rate ([7]; H9, II-1 30 µM, Day 1 Treatment) of 84.96%. For the same compound, the Cell survival rate ([7]; H9, II-1 30 µM, Day 3 Treatment) was 86.01%, the Cell survival rate ([7]; H9, II-1 30 µM, Day 5 Treatment) was 80.25% and the Cell survival rate ([7]; H9, II-1 30 µM, Day 7 Treatment) was 78.71%. It also gave a Cell survival rate ([7]; H9, II-1 50 µM, Day 1 Treatment) of 76.96%, a Cell survival rate ([7]; H9, II-1 50 µM, Day 3 Treatment) of 73.87% and a Cell survival rate ([7]; H9, II-1 50 µM, Day 5 Treatment) of 69.10%. The Cell survival rate ([7]; H9, II-1 50 µM, Day 7 Treatment) was 65.98% and the “cell viability, course” value ([7]; H9, II-1 10-50 µM, days 1-7) was “gradual decline in viability”.

— patent publication EP4717694A1, “PYRAZOLFORMYL PIPERAZINONE COMPOUND, PHARMACEUTICAL COMPOSITION AND USE THEREOF” (Iregene Therapeutics Co., Ltd., priority 2023, dated 2024)
